Assay results reported in US8119671B2, “Isoxazoline-substituted benzamide compound and pest control agent” (Nissan Chemical Industries, Ltd., priority 2007, dated 2012).

Key:
Format in all cases: in vivo
Nilaparvata lugens = test: Test Example 8: Mortality Test for Nilaparvata lugens; conditions: 144 h, drug solution 500 ppm, Oryza sativa leaf sheath immersed, 2 instar larvae, after 6 days
Procedure: (§1) A 10% emulsifiable concentrate of the compound of the present invention (depending on the type of the compound, a 10% wettable powder was subjected to the test) was diluted with water containing a spreader to prepare a drug solution in a concentration of 500 ppm. In this drug solution, a leaf sheath of Oryza sativa was immersed for about 10 seconds and was air-dried and then put into a test tube. In the test tube, five 2 instar larvae of Nilaparvata lugens per test tube were released and the test tube was capped with a sponge and stored in a thermostat room of 25° C. The number of killed larvae after 6 days was measured and the mortality was calculated from the same calculation formula as that in Test Example 1. Here, the test was carried out with two replications.

[1] = tested on: American dog ticks (Dermacentor variabilis); test: Test Example 16: Mortality Test for American Dog Tick; conditions: 96 h, thin film in petri dishes, 0.1 μg/cm^2 (acetone solution 100 ppm), protonymphs, after 4 days
Procedure: To the bottom surfaces and the side surfaces of two petri dishes having an inner diameter of 5.3 cm, 400 μL of an acetone solution in which 4 mg of a compound of the present invention was dissolved in 40 mL of acetone (concentration: 100 ppm) was applied and the acetone was volatilized to form a thin film of the compound of the present invention on the inner walls of the petri dishes. The inner wall of the used petri dish has an area of 40 cm^2, so that the amount of the applied drug is 0.1 μg/cm^2. In one petri dish, 10 American dog ticks (Dermacentor variabilis) protonymphs (male and female were mixed) were released and the petri dish was capped with the other petri dish. The seam part of the two petri dishes was sealed with a tape so that the protonymphs could not flee and the two petri dishes were stored in a thermostat room of 25° C. The number of killed protonymphes after 4 days was measured and the mortality was calculated from the same calculation formula as that in Test Example 1. Here, the test was carried out on the single sample.

Eysarcoris lewisi = test: Test Example 7: Mortality Test for Eysarcoris lewisi; conditions: in Oryza sativa, 48 h
Procedure: as §1, with “five 1” for “five 2”, “of Eysarcoris lewisi” for “of Nilaparvata lugens”, “per one” for “per”, “after 2” for “after 6”

Tetranychus urticae = test: Test Example 14: Mortality Test for Tetranychus urticae; conditions: 144 h
Procedure: In a styrol cup having an inner diameter of 7 cm, a wet filtration paper was laid, and on the paper, a leaf of kidney bean cut out so as to have the same diameter as the inner diameter of the cup was laid, followed by inoculating 10 larvae of Tetranychus urticae per leaf to the leaf. A 10% emulsifiable concentrate of the compound of the present invention (depending on the type of the compound, a 10% wettable powder was subjected to the test) was diluted with water containing a spreader to prepare a drug solution in a concentration of 500 ppm. The drug solution was dusted using a rotary dusting tower in an amount of 2.5 mL per styrol cup and the cup was capped and stored in a thermostat room of 25° C. The number of killed larvae after 6 days was measured and the mortality was calculated from the same calculation formula as that in Test Example 1. Here, the test was carried out with two replications.

Ctenocephalides felis = test: Test Example 15: Mortality Test for Cat Flea; conditions: 96 h
Procedure: To the bottom surface and the side surface of a petri dish having an inner diameter of 5.3 cm, 400 μL of an acetone solution in which 40 mg of the compound of the present invention was dissolved in 40 mL of acetone (concentration: 1,000 ppm) was applied and the acetone was volatilized to form a thin film of the compound of the present invention on the inner wall of the petri dish. The inner wall of the used petri dish has an area of 40 cm^2, so that the amount of the applied drug is 1 μg/cm^2. In the petri dish, 10 Ctenocephalides felis imagines (male and female were mixed) were released and the petri dish was capped and stored in a thermostat room of 25° C. The number of killed larvae after 4 days was measured and the mortality was calculated from the same calculation formula as that in Test Example 1. Here, the test was carried out on the single sample.

Helicoverpa armigera = test: Test Example 4: Mortality Test for Helicoverpa armigera; conditions: 144 h
Procedure: A 10% emulsifiable concentrate of the compound of the present invention (depending on the type of the compound, a 10% wettable powder was subjected to the test) was diluted with water containing a spreader to prepare a drug solution in a concentration of 100 ppm. In this drug solution, a leaf of canarium album was immersed for about 10 seconds and was air-dried and then put into a petri dish. In the petri dish, one 2 instar larva of Helicoverpa armigera per petri dish was released and the petri dish was capped and stored in a thermostat room of 25° C. The number of killed larvae after 6 days was measured and the mortality was calculated from the same calculation formula as that in Test Example 1. Here, the test was carried out with 2 replications.

Bemisia argentifolii = test: Test Example 9: Mortality Test for Bemisia argentifolii; conditions: in Solanum lycopersicum, 144 h
Procedure: In a styrol cup having an inner diameter of 7 cm, a wet filtration paper was laid, and on the paper, a cut-out leaf of tomato on which Bemisia argentifolii laid eggs (10 eggs/leaf) was laid. A 10% emulsifiable concentrate of the compound of the present invention (depending on the type of the compound, a 10% wettable powder was subjected to the test) was diluted with water containing a spreader to prepare a drug solution in a concentration of 500 ppm. The drug solution was dusted using a rotary dusting tower in an amount of 2.5 mL per styrol cup and the cup was capped and stored in a thermostat room of 25° C. The number of killed larvae after 6 days was measured and the mortality was calculated from the same calculation formula as that in Test Example 1. Here, the test was carried out with two replications.

Myzus persicae = test: Test Example 10: Mortality Test for Myzus persicae; conditions: 144 h
Procedure: In a glass petri dish having an inner diameter of 3 cm, a wet absorbent cotton was laid, and on the cotton, a leaf of canarium album cut out so as to have the same diameter as the inner diameter of the petri dish was laid, followed by releasing 4 apterous imagines of Myzus persicae on the leaf. After one day, 10% emulsifiable concentrate of the compound of the present invention (depending on the type of the compound, a 10% wettable powder was subjected to the test) was diluted with water containing a spreader to prepare a drug solution in a concentration of 500 ppm. The drug solution was dusted using a rotary dusting tower (2.5 mg/cm^2) and the petri dish was capped and stored in a thermostat room of 25° C. The number of killed imagines after 6 days was measured and the mortality was calculated from the same calculation formula as that in Test Example 1. Here, the test was carried out with two replications.

Cc1cc(C2=NOC(c3cc(Cl)cc(Cl)c3)(C(F)(F)F)C2)ccc1C(=O)NC1(c2ccccn2)CC1 (centres unmarked) [No. 1-007, 4-[5-(3,5-Dichlorophenyl)-5-trifluoromethyl-4,5-dihydroisoxazole-3-yl]-2-methyl-N-[1-(2-pyridyl)cyclopropyl]benzamide]
≥ 80%: mortality at 500 ppm (Nilaparvata lugens) | mortality at 100 ppm, 0.1 µg/cm2 [1] | mortality at 500 ppm (Eysarcoris lewisi) | mortality at 500 ppm (Tetranychus urticae) | mortality at 1000 ppm, 1 µg/cm2 (Ctenocephalides felis) | mortality at 100 ppm (Helicoverpa armigera) | mortality at 500 ppm (Bemisia argentifolii) | mortality at 500 ppm (Myzus persicae)
